Measurements taken from patent US20150087037A1, “FERMENTATION PROCESS” (LanzaTech New Zealand Limited, priority 2013, published 2015).

Tests used:
[1] = test system: C. autoethanogenum DSM23693; assay: Addition of other known inhibitor to a fermentation optimized for 2,3-Butanediol production; type: cell-based, Clostridium autoethanogenum; conditions: single addition, 15 mM, stable reactor, day 13.2, FIG. 13
Procedure: Fermentations with C. autoethanogenum DSM23693 were carried out in 1.5 L bioreactors at 37° C. The media was prepared according to Table 1. To achieve anaerobicity the reactor vessel was sparged with nitrogen. Prior to inoculation, the gas was switched to either steel mill gas containing H2 (3%), N2 (30%), CO (47%) and CO2 (20%) or pure gases (50% CO, 18-40% CO2, with the balance N2). The gas flow was initially set at 67 ml/min/L, increasing to 200 ml/min during mid-exponential phase, while the agitation was increased from 200 rpm to 800. Na2S was dosed into the bioreactor at 0.25 ml/hr. Once the OD600 reached 1.5, the bioreactor was switched to a continuous mode at a dilution rate of 2.0-1.6 d-l and a bacterial dilution rate of 0.9-0.6 d-l. During continuous mode gas and agitation were adjusted to 900-950 rpm and 800-900 ml/min. Na2S was increased to 1.0 ml/hr.
Liquid culture samples were taken at differing intervals over the duration of the fermentation. These samples were used to establish the optical density at 600 nm (spectrophotometer) and the level of substrates and products (high performance liquid chromatography—HPLC). HPLC was routinely used to quantify the level of acetate, ethanol and 2,3-butanediol. The input and output gas compositions were analysed using a gas chromatographer (GC), allowing measurement of CO and H2 consumption and CO2 production by the culture. […]

[2] = test system: Ketol-acid reductoisomerase IlvC; conditions: reference in the literature; cited from earlier work

CCC(C)(O)C(=O)O (stereo not drawn) [2-hydroxy-2-methylbutyric acid]
ethanol:2,3-BDO ratio [1]: drop
production of 2,3-Butanediol [1]: increase
inhibition of ilvC [2]: known inhibitor
